In ChEMBL document CHEMBL2029209, “Structure-based design of 2,6,7-trisubstituted-7H-pyrrolo[2,3-d]pyrimidines as Aurora kinases inhibitors” (Bioorg Med Chem Lett, 2012):

Assays:
HCT-116 [1] = assay: Antiproliferative activity against human HCT116 cells; assay type: functional, cell-based
[2] = molecular target: Cyclin-dependent kinase 1 (Homo sapiens, UniProt P06493); assay: Inhibition of CDK1
HCT-116 [3] = assay: Induction of cell cycle arrest in human HCT116 cells assessed as minimum concentration required for G2/M versus G1 peak ratio over 2; assay type: functional
Aurora kinase A = molecular target: T1, Aurora kinase A (Homo sapiens, UniProt O14965); assay: Inhibition of aurora A kinase
T1 sequence (O14965 whole entry): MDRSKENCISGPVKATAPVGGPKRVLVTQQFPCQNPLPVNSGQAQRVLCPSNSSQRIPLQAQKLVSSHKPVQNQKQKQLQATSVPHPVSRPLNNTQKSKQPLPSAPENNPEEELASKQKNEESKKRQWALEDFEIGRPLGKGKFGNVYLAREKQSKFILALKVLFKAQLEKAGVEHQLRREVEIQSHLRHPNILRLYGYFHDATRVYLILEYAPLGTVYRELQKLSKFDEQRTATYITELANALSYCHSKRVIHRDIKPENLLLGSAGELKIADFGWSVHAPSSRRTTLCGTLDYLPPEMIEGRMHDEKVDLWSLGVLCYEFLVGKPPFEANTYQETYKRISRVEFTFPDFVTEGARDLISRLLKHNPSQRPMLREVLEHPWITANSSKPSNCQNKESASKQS

Aurora kinase B = Aurora kinase B (Homo sapiens, UniProt Q96GD4); assay: Inhibition of aurora B kinase
Sequence of Aurora kinase B (Q96GD4 whole entry): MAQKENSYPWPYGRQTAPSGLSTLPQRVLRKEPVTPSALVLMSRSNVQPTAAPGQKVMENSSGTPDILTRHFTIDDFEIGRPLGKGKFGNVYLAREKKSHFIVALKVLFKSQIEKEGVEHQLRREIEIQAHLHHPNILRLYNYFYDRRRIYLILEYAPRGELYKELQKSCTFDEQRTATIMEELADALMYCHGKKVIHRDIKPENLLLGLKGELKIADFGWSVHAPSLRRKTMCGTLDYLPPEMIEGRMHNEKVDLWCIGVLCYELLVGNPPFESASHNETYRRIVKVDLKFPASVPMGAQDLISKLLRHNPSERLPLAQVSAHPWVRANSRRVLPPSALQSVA

Sequence of Cyclin-dependent kinase 1 (P06493 whole entry): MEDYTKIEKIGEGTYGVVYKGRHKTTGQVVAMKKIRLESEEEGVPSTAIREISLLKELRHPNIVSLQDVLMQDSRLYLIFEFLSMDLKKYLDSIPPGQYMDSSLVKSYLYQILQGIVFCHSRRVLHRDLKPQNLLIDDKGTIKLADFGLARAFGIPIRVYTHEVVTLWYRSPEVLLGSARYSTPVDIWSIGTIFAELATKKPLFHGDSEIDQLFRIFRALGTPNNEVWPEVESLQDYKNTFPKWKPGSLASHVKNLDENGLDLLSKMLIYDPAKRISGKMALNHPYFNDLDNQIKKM

| SMILES | IC50 (HCT-116 [1]) [µM] | IC50 [2] [µM] | Activity (HCT-116 [3]) [µM] | IC50 (Aurora kinase A) [µM] | IC50 (Aurora kinase B) [µM] |
| --- | --- | --- | --- | --- | --- |
| CC(O)c1cc2cnc(Nc3cc(C(=O)N4CCN(C)CC4)n(C)c3)nc2n1C1CCCC1 (configuration not stated) | 0.08 | 1.1 | 0.1 | 0.011 | 0.03 |
| Cc1c(-c2cc3cnc(Nc4cc(C(=O)N5CCN(C)CC5)n(C)c4)nc3n2C2CCCC2)cnn1C | 0.11 | 0.33 | 0.03 | 0.002 | 0.004 |
| CC(C)CCn1cc(-c2cc3cnc(Nc4cc(C(=O)N5CCN(C)CC5)n(C)c4)nc3n2C2CCCC2)cn1 | 0.11 | 1.4 | 0.1 | 0.002 | 0.004 |
| CN1CCN(C(=O)c2cc(Nc3ncc4cc(-c5cnco5)n(C5CCCC5)c4n3)cn2C)CC1 | 0.06 | 0.028 | 0.03 | 0.002 | 0.004 |
| CN1CCN(C(=O)c2cc(Nc3ncc4cc(C(N)=O)n(C5CCCC5)c4n3)cn2C)CC1 | 0.07 | 0.5 | 0.1 |  | 0.011 |
| CN1CCN(C(=O)c2cc(Nc3ncc4cc(CO)n(C5CCCC5)c4n3)cn2C)CC1 | 0.13 | 1.3 | 0.1 | 0.02 | 0.04 |
| CN1CCN(C(=O)c2cc(Nc3ncc4cc(-c5cnn(Cc6ccccc6)c5)n(C5CCCC5)c4n3)cn2C)CC1 | 0.09 | 2 | 0.1 | 0.002 | 0.004 |
| CN1CCN(C(=O)c2cc(Nc3ncc4cc(C#N)n(C5CCCC5)c4n3)cn2C)CC1 | 0.04 | 0.006 | 0.065 | 0.0075 | 0.004 |
| CN1CCN(C(=O)c2cc(Nc3ncc4cc(-c5cnn(C)c5)n(C5CCCC5)c4n3)cn2C)CC1 |  | 0.18 | 0.03 | 0.002 | 0.004 |
| CN1CCN(C(=O)c2cc(Nc3ncc4ccn(C5CCCC5)c4n3)cn2C)CC1 | 0.29 | 0.24 | 0.3 | 0.038 | 0.018 |
| CN1CCN(C(=O)c2cc(Nc3ncc4cc(C(=O)O)n(C5CCCC5)c4n3)cn2C)CC1 | 12.3 | 10 | 10 | 0.35 | 1 |
| CN1CCN(C(=O)c2cc(Nc3ncc4cc(-c5cncn5C)n(C5CCCC5)c4n3)cn2C)CC1 | 0.005 | 0.2 | 0.003 | 0.002 | 0.005 |
| CN1CCN(C(=O)c2cc(Nc3ncc4cc(-c5ccnn5C)n(C5CCCC5)c4n3)cn2C)CC1 | 0.59 | 1.7 | 1 |  | 0.004 |
| CNCc1cc2cnc(Nc3cc(C(=O)N4CCN(C)CC4)n(C)c3)nc2n1C1CCCC1 | 0.21 | 0.7 | 0.3 | 0.04 | 0.06 |
| CN1CCN(C(=O)c2cc(Nc3ncc4cc(/C=N/O)n(C5CCCC5)c4n3)cn2C)CC1 | 0.004 | 0.003 | 0.002 | 0.011 | 0.03 |
